T1 relaxation data for one compound are collected here from patent US20110020235A1, “MR METHODS OF GRADING A TUMOR USING AN IMAGING MEDIUM THAT COMPRISES HYPERPOLARISED 13C-PYRUVATE” (priority 2007, published 2011).

This data set can be described thus: T1 relaxation of 13C1-pyruvate in human full blood. It counts as physicochemical. The conditions noted are these: human full blood at 37° C.

`CC(=O)C(=O)O` [13C1-pyruvate]: the T1 relaxation entry is listed as “about 42 s”.
